In paper PMC10177496, “An Isoxazoloquinone Derivative Inhibits Tumor Growth by Targeting STAT3 and Triggering Its Ubiquitin-Dependent Degradation” (Cancers, 2023):

Biological target: STAT3 (Homo sapiens, UniProt P40763)
Experiment: biotin pull-down (MDA-MB-231), LC/MS identification and STAT3 Western blot
Format: cell-based
Text: biotin pull-down (MDA-MB-231), LC/MS identification and STAT3 Western blot on STAT3 | identified the proteins that bind to biotin–ZSW specifically using LC/MS. We determined that STAT3 was specifically stripped

Chain of STAT3 (P40763 2-770): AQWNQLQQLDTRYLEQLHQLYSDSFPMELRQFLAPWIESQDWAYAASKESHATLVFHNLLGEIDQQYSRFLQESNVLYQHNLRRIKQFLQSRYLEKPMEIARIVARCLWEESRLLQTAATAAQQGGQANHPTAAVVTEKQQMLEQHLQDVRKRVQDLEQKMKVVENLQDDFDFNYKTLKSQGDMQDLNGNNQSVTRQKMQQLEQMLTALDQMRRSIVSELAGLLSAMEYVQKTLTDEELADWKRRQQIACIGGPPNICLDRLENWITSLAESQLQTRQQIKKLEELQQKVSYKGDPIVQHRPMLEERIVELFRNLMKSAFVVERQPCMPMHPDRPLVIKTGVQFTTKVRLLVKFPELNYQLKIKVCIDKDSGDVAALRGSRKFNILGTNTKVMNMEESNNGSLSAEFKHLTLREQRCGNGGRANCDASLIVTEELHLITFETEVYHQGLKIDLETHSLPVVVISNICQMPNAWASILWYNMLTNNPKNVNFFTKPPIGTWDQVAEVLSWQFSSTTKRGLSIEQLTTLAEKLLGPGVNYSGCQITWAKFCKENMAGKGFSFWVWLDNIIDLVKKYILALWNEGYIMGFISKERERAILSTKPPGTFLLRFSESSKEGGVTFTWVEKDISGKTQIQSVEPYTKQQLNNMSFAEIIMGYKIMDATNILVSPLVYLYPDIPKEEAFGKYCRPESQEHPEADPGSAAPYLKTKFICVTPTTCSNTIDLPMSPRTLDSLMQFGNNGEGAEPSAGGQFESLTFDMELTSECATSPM

COc1cc(-c2noc3c2C(=O)c2cccnc2C3=O)cc(OC)c1OCCCOC(=O)CCCCC1SCC2NC(=O)NC21 (stereo not shown) [biotin–ZSW]
biotin pull-down (MDA-MB-231), LC/MS identification and STAT3 Western blot: identified the proteins that bind to biotin–ZSW specifically using LC/MS. We determined that STAT3 was specifically stripped
